Activity calls are given as the source filed them.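 The calls were made as follows: active = TRPV1 channel activation above 50%; inactive = activation of 50% or less.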
Molecular target: Transient receptor potential cation channel subfamily V member 1 (Homo sapiens) (UniProt Q8NER1)
Test: activation of human TRPV1 currents – automated patch clamp, HEK293 cells, confirmation (AID 588633)
Conditions: TRPV1-HEK293, automated patch clamp current; at 10 µM; stronger effect = higher value

Chain of Transient receptor potential cation channel subfamily V member 1 (Homo sapiens) (Q8NER1 whole entry, looked up): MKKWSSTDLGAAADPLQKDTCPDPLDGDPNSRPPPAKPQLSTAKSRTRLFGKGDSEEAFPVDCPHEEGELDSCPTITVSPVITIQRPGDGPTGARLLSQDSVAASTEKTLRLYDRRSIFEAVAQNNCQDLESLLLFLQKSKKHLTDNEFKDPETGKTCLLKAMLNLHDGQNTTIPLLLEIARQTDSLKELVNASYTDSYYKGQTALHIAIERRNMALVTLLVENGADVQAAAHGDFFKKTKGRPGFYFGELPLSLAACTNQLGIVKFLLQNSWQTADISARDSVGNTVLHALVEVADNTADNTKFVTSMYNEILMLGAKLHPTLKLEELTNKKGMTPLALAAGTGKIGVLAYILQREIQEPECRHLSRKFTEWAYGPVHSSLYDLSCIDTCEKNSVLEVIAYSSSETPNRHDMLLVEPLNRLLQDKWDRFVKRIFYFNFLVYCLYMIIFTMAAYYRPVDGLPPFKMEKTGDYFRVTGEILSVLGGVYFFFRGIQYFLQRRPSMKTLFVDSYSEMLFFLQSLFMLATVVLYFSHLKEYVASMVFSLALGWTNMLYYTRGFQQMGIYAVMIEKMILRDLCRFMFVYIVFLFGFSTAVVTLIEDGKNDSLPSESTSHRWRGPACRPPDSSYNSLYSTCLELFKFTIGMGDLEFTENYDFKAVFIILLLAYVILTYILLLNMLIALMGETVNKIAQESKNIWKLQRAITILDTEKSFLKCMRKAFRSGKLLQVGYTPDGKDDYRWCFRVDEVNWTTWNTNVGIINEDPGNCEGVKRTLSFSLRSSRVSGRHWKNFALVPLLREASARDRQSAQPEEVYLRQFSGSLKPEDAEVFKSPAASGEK

SMILES	activation
CCCCCC1CCC(C(=O)N2CCOCC2)CC1 (centres undefined)	57%
CC(=O)c1ccc(N2CCN(C(=O)Nc3ccc(C(C)C)cc3)CC2)cc1	316%
O=C(CCc1ccccc1)N1CCCC(Nc2ccc(F)cc2)C1 (centres undefined)	585%
Cc1cc2oc(C(=O)Nc3cccnc3)c(C)c2cc1C	6.35% (inactive)
COc1ccc(Cn2nc(-c3ccccc3)c(N3CCCCC3)cc2=O)cc1	143%
COc1ccc(Nc2ncnc3c2oc2ccccc23)cc1	48.6% (inactive)
Cc1ccc(C(=O)Nc2ccc(SC(F)F)cc2)s1	54.6%
O=C(NCc1cccnc1)C1CCC(c2ccc(Cl)cc2)CC1 (centres undefined)	196%
Cc1cc(C(=O)N/N=C/c2cccc([N+](=O)[O-])c2)c(C)n1-c1ccccc1	76.2%
CC(C)(C)c1ccc(C(=O)Nc2ccc3c(c2)C(=O)NC3=O)cc1	3.59% (inactive)
CC(C)c1ccc(NCCC(=O)c2cccs2)cc1	57.6%
CCC(C)Sc1ccc(-c2nc3ccc(C)cn3c2NCc2ccccc2)cc1OC (centres undefined)	27.4% (inactive)
O=C(C1=NOC(CNc2ncc(C(F)(F)F)cc2Cl)C1)N1CCOCC1 (centres undefined)	157%
Cc1cc(C(=O)NCCC2=CCCCC2)ccc1[N+](=O)[O-]	369%
O=C(/C=C\c1cn(-c2ccccc2)nc1-c1cccs1)N1CCOCC1	272%
COc1ccc(NC(=O)CCCSc2nc(-c3ccco3)cc(C(F)(F)F)n2)cc1OC	406%
Cc1cc2c(NC(=O)Nc3ccc(C(C)(C)C)cc3)cccc2nn1	200%
CC(C)(C)c1ccc(/C=C/C(=O)Nc2cccnc2)cc1	131%
CCCn1c(SC(C)C(=O)N2CCOCC2)nc2ccc(Br)cc2c1=O (centres undefined)	253%
CC1CCCN(c2ccc(C(=O)Nc3cccnc3)cc2[N+](=O)[O-])C1 (centres undefined)	467%
COc1ccc(NC2c3ccccc3C(=O)N2Cc2ccc3c(c2)OCO3)cc1 (centres undefined)	330%
CC(OC(=O)CC1CCCCC1)C(=O)Nc1ccc(F)cc1 (centres undefined)	77.3%
CC(=O)c1ccc(N2CCN(C(=O)Nc3ccc(Cl)cc3)CC2)cc1	6.07% (inactive)
CC(C)(C)c1ccc(/C=C/C(=O)N2CCCCC2)cc1	420%

SMILES	activation
CC(C)(C)c1ccc(NC(=O)N2CCCN(c3ccc([N+](=O)[O-])cn3)CC2)cc1	287%
Cc1ccc(S(=O)(=O)Cc2ccc(C(=O)NCCc3ccccc3)o2)cc1	50.9%
O=C(NCc1ccccc1)[C@@H]1C[C@H]1[C@@H](NP(=O)(c1ccccc1)c1ccccc1)c1ccccc1	97.1%
CCCCCCC1CCC(C(=O)N2CCOCC2)CC1 (centres undefined)	17.2% (inactive)
CCc1nc(Nc2ccc3c(c2)OCCO3)c2oc3ccccc3c2n1	111%
Cc1ccc(Nc2ncnc3c2oc2ccccc23)cc1	200%
CCN(CC)S(=O)(=O)c1ccc(/C=C/C(=O)Nc2ccc(N3CCOCC3)cc2)cc1	27.1% (inactive)
CCCCCCCCC(=O)NCc1ccc(O)c(OC)c1	43.2% (inactive)
CC(=O)Nc1ccc(N=Cc2c(O)ccc3ccccc23)cc1	30% (inactive)
COc1ccc(C(=O)Nc2ccc(C3=NNC(=O)CC3C)cc2NC(=O)c2ccc(OC)cc2)cc1 (centres undefined)	51.6%
CCc1ccc(NC(=O)Nc2ccc3c(c2)N(C)C(=O)CS3)cc1	28.7% (inactive)
CC(C)(C)c1ccc(C(=O)Nc2ccc(S(N)(=O)=O)cc2)cc1	378%
CCN(CCNC(=O)c1ccc(C#N)cc1)c1cccc(C)c1	427%
CC1CCN(C(=O)/C=C/c2ccc(C(C)(C)C)cc2)CC1	12.5% (inactive)
CC(C)(C)c1ccc2c(c1)OC(C(=O)N/N=C\c1ccncc1)CO2 (centres undefined)	182%
CC(C)c1ccc(/C=C/C(=O)N2CCOCC2)cc1	242%
CCc1ccc2oc(C(=O)Nc3cccnc3)c(C)c2c1	4.84% (inactive)
Cc1ccc(Cn2nc(C(=O)Nc3ccc(Br)cc3)cc2C)cc1	26.9% (inactive)
CC(C)c1ccc(NC(=O)N2CCC(c3nc4ccccc4o3)CC2)cc1	135%
CCOC(=O)[C@H]1[C@H]2COc3ccc(Cl)cc3[C@@H]2N2C(=O)c3ccc(C)cc3NC(=O)[C@@]12C	34% (inactive)
CCN(c1ccc(NC(=O)c2ccc(Cl)nc2)cc1)C(C)C	291%
Cc1ncsc1CCC(=O)N1CCCC(Nc2ccc(C(C)C)cc2)C1 (centres undefined)	335%
O=C(COC(=O)C12CC3CC(CC(C3)C1)C2)Nc1ccc2[nH]c(=O)[nH]c2c1	34.9% (inactive)
CC(C)c1ccc(NC2CCCN(C(=O)c3ccco3)C2)cc1 (centres undefined)	387%

SMILES	activation
CCCSc1ccc(-c2nn(-c3ccccc3)cc2/C=C(/C#N)C(=O)N2CCOCC2)cc1	23.7% (inactive)
CC(C)(C)c1cc(CCC(=O)NCc2ccncc2)cc(C(C)(C)C)c1O	265%
Cc1ccc(Nc2nc(C)nc3c2oc2ccccc23)cc1	317%
Cc1ccc(/C=N/Nc2nc(N3CCCCC3)nc(N3CCCCC3)n2)o1	148%
CCC(C)Sc1cccc(-c2nc3ccc(Cl)cn3c2NCc2ccccc2)c1 (centres undefined)	10.9% (inactive)
CC(C)CCSc1nc(N2CCOCC2)c2c(c1C#N)CC(C)(C)OC2	93.7%
CC(C)(C)c1ccc(/C=N/OCC(=O)NCc2ccc(F)cc2)cc1	9.95% (inactive)
CCc1ccc(/C=C2\SC(N3CCOCC3)=NC2=O)cc1	199%
CCOC(=O)c1sc(-c2ccccc2)cc1NC(=O)Nc1ccccc1	43.2% (inactive)
Oc1ccccc1N=Cc1c(O)ccc2ccccc12	10.6% (inactive)
CC(C)c1ccc(CNNC(=O)c2ccccc2)cc1	156%
COc1cccc(/C=N/n2c(SC)nnc2-c2ccccc2)c1O	173%
Cc1ccc(C2=NN(C)c3nc4ccccc4n3C2)cc1	105%
CC(C)(C)c1ccc(/C=C/C(=O)Nc2ccncc2)cc1	69.2%
CS(=O)(=O)N1CCc2cc(C(=O)Nc3ccc(Br)cc3)ccc21	5.79% (inactive)
COc1ccc(CNC(=S)NCc2ccc(Cl)cc2)cc1OC	272%
COC(=O)c1[nH]c2ccc(C)cc2c1NC(=O)CN1CCCC(C)(C)C1	61.2%
Cc1cnc(NC(=O)c2cc3c(s2)CCCC3)s1	32.4% (inactive)
COCCNC(=O)CCc1c(C)nc2c(c(C)nn2-c2ccc(C)cc2)c1C	197%
CC(C)(C)OC(=O)CNC(=O)c1[nH]cnc1C(=O)N[C@@H](Cc1ccccc1)C(=O)OC(C)(C)C	28.7% (inactive)
Cc1ccc(N2CCN(C(=O)N3CCOCC3)CC2)c(C)c1	33.5% (inactive)
NS(=O)(=O)c1ccc(NC(=O)c2ccc3c(c2)CCCC3)cc1	23.2% (inactive)
O=C(Nc1ccc(C(F)(F)F)cc1)c1ccc2ncsc2c1	145%
Cc1nc(Nc2cccc(Cl)c2)c2oc3ccccc3c2n1	34.8% (inactive)

SMILES	activation
COc1ccc(Nc2nc(C)nc3c2oc2ccccc23)cc1	419%
O=C(NCCCc1ccccc1)c1ccc(F)cc1	-2.6% (inactive)
CC(=O)c1ccc(NC(=O)N2CCN(c3ccc(C)cc3)C(C)C2)cc1 (centres undefined)	155%
CCCOc1ccc(/C=C/C(=O)N2CCOCC2)cc1	338%
Cc1ccc(NC(=O)c2cc3c(s2)CCCC3)cc1	402%
Cc1nc(Nc2cccc(F)c2)c2oc3ccccc3c2n1	58.3%
Cc1cccn2c(=O)c3cc(C(=O)NCC4CCCO4)c(=N)n(Cc4ccc(F)cc4)c3nc12 (centres undefined)	229%
CC(C)(C)c1ccc(OCCNC(=O)Cc2ccc(F)cc2)cc1	39.6% (inactive)
CC(C)(C)c1ccc(NC(=O)c2ccsc2)cc1	199%
O=C(Nc1cccc([N+](=O)[O-])c1)c1ccc(-c2ccccc2)cc1	5.26% (inactive)
Cc1ccc2nc(-c3ccccn3)cc(C(=O)Nc3ccc4c(c3)OCO4)c2c1	1.55% (inactive)
CCc1nc(Nc2ccccc2)c2oc3ccccc3c2n1	128%
O=C(Nc1ccc(N2CCCCCC2)cc1)c1cccc(S(=O)(=O)N2CCOCC2)c1	197%
O=C(C1=C[C@@H](c2ccccc2)C[C@@H](OCc2ccc(CO)cc2)O1)N1CCCCCCC1	323%
CCC(C)(C)c1ccc(OCC(=O)Nc2ccncc2)cc1	440%
CC(=O)c1ccc(Nc2ncnc3c2oc2ccccc23)cc1	69.7%
O=C(/C=C\c1cn(-c2ccccc2)nc1-c1ccc2c(c1)OCCO2)N1CCOCC1	226%
CCC(C)Sc1cccc(-c2nc3cc(C)ccn3c2NCc2ccccc2)c1 (centres undefined)	63.1%
O=C(Nc1ccccc1)c1cc(-c2ccccc2Cl)no1	40.5% (inactive)
O=C(Nc1cccnc1)c1ccc(-c2ccccc2)cc1	67%
O=C(c1cc(-c2ccc(Cl)cc2Cl)on1)N1CCOCC1	334%
CC(C)(C)c1ccc(OCCCC(=O)N2CCOCC2)cc1	304%
